Results on one compound are retold here after patent US9974776B2, “Estrogen receptor beta agonists for use in treating mesothelioma” (Karo Pharma AB, priority 2013, dated 2018).

The subject of assay [1] is MSTO-211H/ERβ cells. Nature of the assay: Proliferation assay in MSTO-211H cells transfected with ERβ expression vector. It is filed as cell-based. Conditions: 10 nM, 24 and 48 hours; transient transfection with ERβ expression vector. An excerpt:
The epithelioid MPM derived REN cell line was isolated, characterized and provided by Dr. Albelda S. M. (University of Pennsylvania, Philadelphia; PA, USA). The biphasic MSTO-211H and the mesothelial MET5A cell lines were obtained from the Istituto Scientifico Tumori (IST) Cell-bank, Genoa, Italy; the MMB and MMP cell lines have been derived from pleural effusions of patients with MPM and stabilized in culture (Cacciotti P, et al., Proc Natl Acad Sci USA 2001; 98:12032-7; Pinton G., et al, Cancer Res 2009; 69:4598-604); the H2596 cell line was produced by Dr. H. I. Pass from surgical specimens derived from patients with resected MPM (Pass H. I., et al., Ann Thorac Surg 1995; 59(4):835-44). Cells were grown in RPMI medium supplemented with 10% FBS, […] streptomycin and 10 μg/ml penicillin at 37° C. in a humidified environment containing 5% CO2. Mycoplasma infection was excluded by the use of Mycoplasma Plus™ PCR Primer Set kit from Stratagene (La Jolla, Calif., USA). […]
Cells were seeded at a density of 10×10^4 cells/well in 6-well plates in RPMI medium supplemented with 10% FBS, 100 μg/ml streptomycin and 10 μg/ml penicillin and incubated over-night at 37° C. in a humidified environment containing 5% CO2 to allow adherence. […] The number of cells considered viable (unstained cells) was counted in a Bürker haemocytometer within 5 minutes after staining.

The subject of assay [2] is MSTO-211H cells. Nature of the assay: Proliferation assay in ERβ negative MSTO-211H cells. The format is cell-based. Conditions: 10 nM single agent, 24 and 48 hours. The procedure:
(§1) Cells were seeded at a density of 10×10^4 cells/well in 6-well plates in RPMI medium supplemented with 10% FBS, 100 μg/ml streptomycin and 10 μg/ml penicillin and incubated over-night at 37° C. in a humidified environment containing 5% CO2 to allow adherence. Following treatment cells were trypsinized and stained with Trypan blue. The number of cells considered viable (unstained cells) was counted in a Bürker haemocytometer within 5 minutes after staining.

Assay [3] relates to H2596 cells. In words: Proliferation assay in H2596 cells. Conditions: 10 nM single agent, 24 and 48 hours; very low ERβ. The format is cell-based. How it is done:
as §1

Assay [4] has as its system REN cells. Nature of the assay: Cell cycle analysis (propidium iodide, flow cytometry) in REN cells. The format is cell-based, human. Conditions: 10 nM 2 hours pre-treatment, then 100 μM cisplatin 24 hours. The procedure:
For cell cycle/apoptosis analysis, 5×10^5 cells were seeded in tissue culture plates and treated with 100 μM cisplatin for 24 hours or pre-treated for 2 hours with 10 nM Compound (I) followed by wash-off and continued growth in normal medium±100 μM cisplatin, for additional 24 hours at 37° C. in a 5% CO2 atmosphere. After incubation, detached and suspended cells were harvested in complete RPMI and centrifuged at 500×g for 10 minutes. Pellets were washed with PBS, fixed in ice-cold 75% ethanol at 4° C., treated with […] RNAse A for 1 hour at 37° C., stained with 25 μg/mL propidium iodide and finally analyzed by using a flow cytometer FACS (Becton Dickinson, San Jose, Calif., USA) and Modfit software (Verity Software House, Topsham, Me., USA).
REN cells were treated for 24 hours with 100 μM cisplatin or pre-treated 2 hours with 10 nM Compound (I) followed by wash-off and continued growth in normal medium±100 μM cisplatin, for an additional 24 hours. Cell cycle analysis was performed as described above. Control cultures were maintained in normal growth medium. After treatments, cells were stained with propidium iodide and analysed for cellular DNA content by flow cytometry.
In general terms: In flow cytometry, cells or beads pass a laser one at a time.

In the case of `Cc1noc(C)c1-c1c(/C(N)=N/O)c2ccccc2n1-c1ccc(O)cc1` [Compound (I)], the “inhibition of proliferation, MSTO-211H/ERβ cells” value in assay [1] is “sensitized these cells to Compound (I)”. The “inhibition of proliferation, MSTO-211H cells” value in assay [2] is “no response”. Further, in assay [3], the “inhibition of proliferation, H2596 cells” value was “weak response”. In assay [4], the “cell cycle phase distribution” value was “significant and efficient blockage of the cell cycle in the G0/G1 phase and inhibition of cells entering the S-phase”; the “percentage of dead cells” value is given as “significant higher percentage of dead cells”.
